Experimental data from PubChem BioAssay (NCI).
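The compound was tested at five concentrations on cells cultured in 96-well plates, with a 48-hour exposure period. GI50: concentration for 50% inhibition of growth. TGI denotes the concentration required for complete inhibition of growth.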

What was measured:
Assay in all cases: NCI tumour cell line growth inhibition, 48 h
[1] = tested on: ACHN renal
[2] = tested on: CCRF-CEM leukemia
[3] = tested on: NCI/ADR-RES ovarian
[4] = tested on: EKVX NSCLC
[5] = tested on: HS 578T breast
[6] = tested on: HCT-116 colon
[7] = tested on: CAKI-1 renal
[8] = tested on: MCF7 breast
[9] = tested on: HOP-62 NSCLC
[10] = tested on: LOX IMVI melanoma

| Compound | TGI [1] [µM] | TGI [2] [µM] | TGI [3] [µM] | TGI [4] [µM] | TGI [5] [µM] | TGI [6] [µM] | TGI [7] [µM] | TGI [8] [µM] | TGI [9] [µM] | TGI [10] [µM] | GI50 [1] [µM] | GI50 [8] [µM] | GI50 [3] [µM] | GI50 [4] [µM] | GI50 [7] [µM] |
| --- | --- | --- | --- | --- | --- | --- | --- | --- | --- | --- | --- | --- | --- | --- | --- |
| CC(=O)Nc1c(S(=O)(=O)c2ccccc2)c(C)c(C)n1Cc1ccccc1 | > 100 | > 100 | > 100 | > 100 | > 100 | > 100 | > 100 | – | – | – | – | – | – | – | – |
| Clc1ccc(-c2cn3c(nc4ccccc43)c(/C=C/c3ccco3)n2)cc1 | > 100 | – | > 100 | – | 61.8 | > 100 | – | > 100 | > 100 | > 100 | – | – | – | – | – |
| Cc1c(N=Nc2ccccc2)c(C)n(C2OC(CO)C(O)C(O)C2O)c(=S)c1C#N (configuration not stated) | > 100 | > 100 | > 100 | – | > 100 | 46.2 | > 100 | > 100 | 59.6 | 54.8 | – | – | – | – | – |
| CC(=O)Nc1ccc2[nH]c(C(=O)N3CC(CCl)c4c3cc([N+](=O)[O-])c3ccccc43)cc2c1 (configuration not stated) | > 100 | 29 | > 100 | > 89.4 | > 95 | > 100 | > 29.9 | > 100 | – | > 100 | – | – | – | – | – |
| COC(=O)N[C@H](C(=O)O)C(C)O[Si](C)(C)C(C)(C)C (some centres not stated) | > 100 | > 100 | > 100 | > 100 | > 100 | > 100 | – | > 100 | > 100 | > 100 | – | – | – | – | – |
| O=C(CSc1nc(-c2ccccc2)c(-c2ccccc2)[nH]1)N/N=C/c1ccc(O)cc1 | 55.9 | > 100 | – | 84.4 | – | 63.2 | – | – | 46.5 | 43 | – | – | – | – | – |
| OCCN(/N=C\c1ccc2ccccc2c1)C1=NCCN1 | > 100 | 71.4 | – | > 100 | > 100 | 79.9 | – | > 100 | > 100 | 30.6 | – | – | – | – | – |
| C=C1C(O)C[C@H](OC(C)=O)[C@]2(C)C1C(OC(C)=O)[C@]1(C(C)(C)O)CC(O)C(C)=C1[C@@H](OC(=O)c1ccccc1)C2OC(C)=O (some centres not stated) | > 10 | > 10 | > 10 | > 10 | > 10 | > 10 | > 10 | > 10 | – | > 10 | – | – | – | – | – |
| COc1ccc([C@@H]2CC(=O)N2)cc1 | > 100 | > 100 | – | > 100 | – | > 100 | > 100 | – | > 100 | – | – | – | – | – | – |
| COc1ccccc1NC(=O)CC(=O)N1N=C(N2c3ccccc3Sc3ccccc32)CC1c1ccccc1 (configuration not stated) | > 100 | > 100 | > 100 | > 100 | > 100 | > 100 | > 100 | > 100 | > 100 | – | – | – | – | – | – |
| COc1cc(OC)c2c3c(OC)cc(OC)c4c(=O)c(O)c(C[C@@H](C)O)c(c5c(C[C@@H](C)O)c(O)c(=O)c1c25)c43 | > 100 | – | > 100 | > 100 | – | 30.1 | 53.2 | 48.6 | > 100 | 35.3 | – | – | – | – | – |
| O=C(c1ccccc1)C1S(=O)(=O)OCCOS1(=O)=O | – | > 100 | – | > 100 | – | > 100 | > 100 | – | > 100 | > 100 | – | – | – | – | – |
| Cc1cc2c(C)n(Cc3ccccc3Cl)nc2c(C(=O)O)c1C | > 100 | > 100 | – | > 100 | – | > 100 | – | – | > 100 | > 100 | – | – | – | – | – |
| CCN(CC)CCN1C(=O)c2c(c3c4ccccc4[nH]c3c3ccc4ccccc4c23)C1=O | 2.87 | – | 4.15 | 3.32 | – | – | 2.87 | 1.96 | – | – | 1.54 | 0.0836 | 1.59 | 1.69 | 1.43 |
| O=C1N2Cc3c4ccc5c3CN3C(=O)N6Cc7c(ccc(c7CN1C6(c1ccccc1)C23c1ccccc1)OCCOCCNCCOCCO4)OCCOCCNCCOCCO5 (configuration not stated) | 47.9 | > 100 | – | > 100 | – | > 100 | > 100 | – | > 100 | – | – | – | – | – | – |
| CC(=O)NC(C)(C)C1CCC(C)=C(c2ccccc2)C1 (configuration not stated) | – | > 100 | – | > 100 | – | > 100 | – | > 100 | > 100 | > 100 | – | – | – | – | – |
| CCCCCCCCCCCC[C@@H](O)[C@H]1CCC([C@H](O)CCCCC(=O)CCCCCCCC2=C[C@H](C)OC2=O)O1 (some centres not stated) | > 50 | > 50 | > 50 | > 50 | > 32.8 | > 50 | > 50 | > 50 | – | > 50 | – | – | – | – | – |
| O=C(/C=C(\S/C=C(/c1ccccc1)N1CCn2c(C(=O)c3ccccc3)c(C(=O)c3ccccc3)c(C(=O)c3ccccc3)c21)C(=O)c1ccccc1)c1ccccc1 | > 10 | > 10 | > 10 | > 10 | > 10 | > 10 | > 10 | > 10 | > 10 | – | – | – | – | – | – |

| Compound | TGI [1] [µM] | TGI [2] [µM] | TGI [3] [µM] | TGI [4] [µM] | TGI [5] [µM] | TGI [6] [µM] | TGI [7] [µM] | TGI [8] [µM] | TGI [9] [µM] | TGI [10] [µM] | GI50 [1] [µM] | GI50 [8] [µM] | GI50 [3] [µM] | GI50 [4] [µM] | GI50 [7] [µM] |
| --- | --- | --- | --- | --- | --- | --- | --- | --- | --- | --- | --- | --- | --- | --- | --- |
| COCN1COCN=C1NC#N | > 100 | – | – | > 100 | – | > 100 | > 100 | – | > 100 | – | – | – | – | – | – |
| NC1=NS(=O)(=O)Nc2nc(-c3ccccc3)[nH]c21 | > 100 | > 100 | – | > 100 | – | > 100 | – | – | – | > 100 | – | – | – | – | – |
| O=C1CC[C@@]2(O)[C@H]3Cc4ccc(-c5ccccc5)c5c4[C@@]2(CCN3CC2CC2)[C@H]1O5 | 42.4 | 49.7 | 33.7 | 52.3 | – | 32 | 36.7 | 33.5 | 40.6 | 32.8 | – | – | – | – | – |
| NNC(=S)NCCNC(=S)NN | > 100 | > 100 | – | > 100 | > 100 | > 100 | > 100 | – | > 100 | > 100 | – | – | – | – | – |
| NC(CSSCC(N)=NCC12CC3CC(CC(C3)C1)C2)=NCC12CC3CC(CC(C3)C1)C2 | 26.6 | – | 33.8 | – | 50.7 | 80.9 | 36.4 | > 100 | > 100 | – | – | – | – | – | – |
| COC(=O)c1c(O)ccc2[nH]c3c(O)c4ccccc4cc3c12 | 96.3 | 63.1 | 78.4 | 39.6 | 72.8 | 47 | 45.9 | 56.2 | 46.7 | – | – | – | – | – | – |
| COc1ccc(N=NC(=O)NC(CC(C)C)C(N)=O)cc1 (configuration not stated) | > 31.6 | > 100 | > 100 | > 100 | > 100 | > 31.6 | > 31.6 | > 31.6 | > 100 | – | – | – | – | – | – |
| S=c1[nH]n2c(CCCCCCCCc3nnc4sc(=S)[nH]n34)nnc2s1 | > 100 | > 100 | > 100 | > 100 | – | > 100 | > 100 | > 100 | > 100 | – | – | – | – | – | – |
| O=C(CC1OC(O)C(Cl)=C1Cl)c1cccnc1 (configuration not stated) | > 31.6 | > 100 | – | > 100 | – | > 54.8 | > 100 | – | > 77.7 | > 100 | – | – | – | – | – |
| O=C(CCC=C(S(=O)(=O)c1ccccc1)S(=O)(=O)c1ccccc1)c1ccccc1 | 20 | – | 25.8 | 30.5 | 31 | 13.9 | 31.1 | 17.1 | 40.3 | 10.3 | – | – | – | – | – |
| C=C1C(=O)O[C@@H]2[C@H](O)[C@@H](C)[C@@H]3C=CC(=O)[C@@]3(C)[C@@H](OC(=O)/C(C)=C/C)[C@H]12 | – | 2.05 | 5.39 | 1.93 | – | 1.03 | 2.02 | 5.15 | 15.3 | 2.88 | – | – | – | – | – |
| Cc1oc2c(c1C)S(=O)(=O)C(C#N)=C(N(C)C)N2 | > 100 | – | > 100 | > 100 | > 100 | > 100 | > 100 | > 100 | > 100 | > 100 | – | – | – | – | – |
| N=c1c2c(=S)n(-c3ccccc3)c(=S)n(-c3ccccc3)c2nc(SCCN2CCCC2)n1-c1ccccc1 | 3.26 | 1.25 | 42.1 | 7.23 | > 100 | 4.43 | 3.11 | – | 12.4 | 3.46 | – | – | – | – | – |
| O=C1CC(c2ccccc2)=Nc2ccccc2N1 | > 100 | > 100 | – | > 100 | – | > 100 | > 100 | – | > 100 | 97.6 | – | – | – | – | – |
| C[C@@H]1C(=O)C[C@H]2C(C)(C)CCC[C@]2(C)[C@@]1(O)CCc1ccoc1 | > 100 | > 100 | – | > 100 | > 100 | > 100 | > 100 | > 100 | > 100 | > 100 | – | – | – | – | – |
| Cn1ncc2c(Cl)ncnc21 | > 100 | – | > 100 | > 100 | > 100 | > 100 | > 100 | > 100 | > 100 | > 100 | – | – | – | – | – |
| Cc1ccc(C2=C(C#N)C(N)OC3=C2COc2ccccc23)cc1 (configuration not stated) | > 100 | 76 | > 100 | 37.4 | – | > 100 | – | > 100 | 34.9 | > 100 | – | – | – | – | – |
| Cn1c(CO)ccc1-c1ccc(-c2ccc[se]2)[se]1 | > 100 | > 60.6 | > 100 | > 100 | > 100 | – | – | > 52.4 | 55.1 | > 100 | – | – | – | – | – |
